Measured values taken from patent publication US20230295197A1, “STAT5 and STAT6 Degraders and Uses Thereof” (REGENTS OF THE UNIVERSITY OF MICHICAN, priority 2022, published 2023).
Where two headings read alike, the source gives them in different places. *1 amine or outer side, *2 acyl side, *3 side chain or, on linkers, in order; H or OH if unused. Where a SMILES comes first, the peptide text is derived from it. [ ]: non-standard residue; d: D form. The star is where a group is joined. Benzothienyl2CO(5-CF2PO3H2) = O=C(c1cc2cc(C(F)(F)P(=O)(O)O)ccc2s1)*; βAla(N-(4-Br-phenyl)) = O=C(CCN(c1ccc(Br)cc1)[*:1])[*:2]; NHBn(4-(4-Me-thiazol-5-yl)) = Cc1ncsc1-c1ccc(CN*)cc1; NH(CH2)9CO = O=C(CCCCCCCCCN[*:1])[*:2]; Hyp = O=C(O)[C@@H]1C[C@@H](O)CN1; Tle = CC(C)(C)[C@H](N)C(=O)O

Columns and labels:
STAT5 = test: Immunoblotting (Western blot) analysis of STAT5 degradation efficiency of degraders in treated cells; format: cell-based; details: MOLM-16 cells, numeric bound, read-out: DC50 S5 MOLM-16
Description: Evaluation of the degradation efficiency of degraders may be accomplished by immunoblotting analysis. The representative general protocol is the following:
Cells are maintained in the appropriate culture medium with 10% FBS at 37° C. and an atmosphere of 5% CO2. Cell lines are used within three months of thawing fresh vials. Cells are lysed 1× Cell Lysis Buffer (Cell Signaling Technology, #9803), resolved by SDS-PAGE NuPAGE gel (Thermo Fisher Scientific), and transferred to a PVDF membrane (Millipore). Membranes are blocked using Odyssey TBS Blocker Buffer (LI-COR). IRDye 680RD and 800CW Dye-labeled secondary antibodies (LI-COR) are used. The washed membranes are scanned using Odyssey CLx imager (LI-COR). The intensity of Western blot signaling is quantitated using the Odyssey software. Primary antibodies used are: STAT5 Rabbit mAb (Cell Signaling Technology, #94205), STAT6 Rabbit mAb (Cell Signaling Technology, #5397) and GAPDH mouse monoclonal antibody (Santa Cruz Biotechnology, sc-47724).
To evaluate the degradation efficiency of degraders, immunoblotting analysis was performed. The general protocol is the following.
About 1 million cells for each data point were treated with compounds at indicated concentrations and durations. Untreated and treated cells in cell culture medium were transferred into tubes, followed by centrifugation at 3,000 rpm and 4° C. for 6 min Supernatants were removed from tubes and radioimmunoprecipitation assay (RIPA) lysis buffer supplemented with 1% protease inhibitor cocktail (Fisher Scientific cat. PI87786) and phosphatase inhibitor (Roche cat. 04906837001) were added to tubes containing the remaining cell pellets. The tubes were then left on ice for 30 min and placed in a −80° C. freezer. Subsequently they were thawed in 37° C. water, then centrifuged at 14,000 rpm for 15 min and the cell lysates transferred to new tubes. The concentration of total proteins in each tube was calculated using the Pierce BCA protein Assay kit (cat. 23225). Based on the calculated protein concentration, cell lysates containing approximately the same amount of proteins were transferred to new tubes, then distilled water and 4× Protein Sample Loading Buffer for Western Blots (LI-COR cat. 928-40004) supplemented with 20% of mercaptoethanol (Sigma Aldrich cat. M6250) were added on ice. The cell lysates were then reduced and denatured at 95° C. for 5 min. From the tubes containing cell lysates an equal amount of protein samples (20-40 μg) was loaded into precast 8%, 10%, 4%-12%, or 4%-20% Tris-glycine gels (Novex) filled with Tris-glycine SDS running buffer. After the proteins were resolved, they were transferred onto Immobile-FL PVDF Membrane (Millipore Sigma cat. IPFL00010), using Mini Trans-Blot Electrophoretic Transfer Cell (Bio-Rad 1703930). The membranes were blocked with Intercept Blocking Buffer (LI-COR cat. 927-70001) in LI-COR Western Blot boxes for 1 h at rt. The membranes were washed with 1× Tris-buffered saline-Tween-20 (TBST, 1× solution was made from 20×TBST solution, ThermoFisher Scientific cat. 28360) for 5 min 4 times. The membranes were incubated overnight at 4° C. in Intercept Blocking Buffer supplemented with primary antibodies (normally antibody:buffer 1:1000) and Tween-20. The membranes were washed with TBST for 5 min 4 times and were incubated with Intercept Blocking Buffer supplemented with IRDye 800CE Secondary Antibodies, IRDye 680RD Secondary Antibodies (LI-COR biosciences), Tween-20, and 10% SDS solution, for 1 h at rt. The membranes were then washed with TBST for 5 min 4 times and rinsed with deionized water before drying and scanning with Odyssey Dlx Amazing System (LI-COR). The immunoblots were finally quantified by the software.

STAT6 = target: T1, STAT6 (Homo sapiens, UniProt P42226); test: Immunoblotting (Western blot) analysis of STAT6 degradation efficiency of degraders in treated cells; format: cell-based
T1 construct: endogenous in cells; host or cells: MOLM-16, KU-812, SKNO1, MB231, L1236
T1 sequence (P42226 1-847): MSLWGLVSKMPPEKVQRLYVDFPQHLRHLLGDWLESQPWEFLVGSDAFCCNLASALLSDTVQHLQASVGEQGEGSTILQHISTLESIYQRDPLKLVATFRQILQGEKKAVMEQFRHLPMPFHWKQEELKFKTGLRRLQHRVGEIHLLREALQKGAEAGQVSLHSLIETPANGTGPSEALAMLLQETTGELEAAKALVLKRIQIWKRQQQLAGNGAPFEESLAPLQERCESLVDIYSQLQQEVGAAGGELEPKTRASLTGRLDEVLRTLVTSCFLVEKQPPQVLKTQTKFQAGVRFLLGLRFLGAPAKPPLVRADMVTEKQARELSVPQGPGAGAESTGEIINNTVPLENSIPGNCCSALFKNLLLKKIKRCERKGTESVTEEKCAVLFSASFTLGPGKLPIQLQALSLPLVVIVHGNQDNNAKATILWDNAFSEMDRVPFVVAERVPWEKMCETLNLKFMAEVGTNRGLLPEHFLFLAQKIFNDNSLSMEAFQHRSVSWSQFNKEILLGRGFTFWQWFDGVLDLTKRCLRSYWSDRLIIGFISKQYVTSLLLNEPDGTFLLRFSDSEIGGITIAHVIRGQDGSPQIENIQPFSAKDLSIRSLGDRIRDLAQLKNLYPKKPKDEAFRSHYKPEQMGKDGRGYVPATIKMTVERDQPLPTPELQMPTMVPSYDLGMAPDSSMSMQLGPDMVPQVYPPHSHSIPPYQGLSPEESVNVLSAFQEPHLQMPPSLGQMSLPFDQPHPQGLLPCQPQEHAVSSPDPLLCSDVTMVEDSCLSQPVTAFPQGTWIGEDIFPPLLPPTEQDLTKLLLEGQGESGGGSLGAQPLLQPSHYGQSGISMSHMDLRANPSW
Method in brief: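 About 1 million cells per point, grown in 10% FBS medium at 37 °C/5% CO2, were exposed to compound at the indicated concentrations and times, then lysed in RIPA buffer with protease and phosphatase inhibitors. Equal protein (20-40 μg) was resolved by SDS-PAGE, blotted to PVDF, and probed with anti-STAT5, anti-STAT6 and anti-GAPDH antibodies.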

[1] = MOLM-16 cells, class symbols, read-out: DC50 S6 MOLM-16

Compound	DC50 (STAT6; [1]) [µM]	further results
CC(C)(C)[C@H](NC(=O)c1cc2cc(C(F)(F)P(=O)(O)O)ccc2s1)C(=O)N1C[C@H](OCc2ccccc2)C[C@H]1C(=O)N(CCC(=O)NCCC#Cc1cccc2c1CN(C1CCC(=O)NC1=O)C2=O)c1ccc(Br)cc1 (stereo partly drawn) [Compound 617, ((2-(((2S)-1-((2S,4R)-4-(benzyloxy)-2-((4-bromophenyl)(3-((4-(2-(2,6-dioxopiperidin-3-yl)-1-oxoisoindolin-4-yl)but-3-yn-1-yl)amino)-3-oxopropyl)carbamoyl)pyrrolidin-1-yl)-3,3-dimethyl-1-oxobutan-2-yl)carbamoyl)benzo[b]thiophen-5-yl)difluoromethyl)phosphonic acid]	–	DC50 (STAT5): > 0.3 µM
CC(C)(C)[C@H](NC(=O)c1cc2cc(C(F)(F)P(=O)(O)O)ccc2s1)C(=O)N1C[C@H](OCc2ccccc2)C[C@H]1C(=O)N(CCC(=O)NCCCCCC#Cc1cccc2c1CN(C1CCC(=O)NC1=O)C2=O)c1ccc(Br)cc1 (stereo partly drawn) [Compound 620, ((2-(((2S)-1-((2S,4R)-4-(benzyloxy)-2-((4-bromophenyl)(3-((7-(2-(2,6-dioxopiperidin-3-yl)-1-oxoisoindolin-4-yl)hept-6-yn-1-yl)amino)-3-oxopropyl)carbamoyl)pyrrolidin-1-yl)-3,3-dimethyl-1-oxobutan-2-yl)carbamoyl)benzo[b]thiophen-5-yl)difluoromethyl)phosphonic acid]	–	DC50 (STAT5): > 0.3 µM
Cc1ncsc1-c1ccc([C@H](C)NC(=O)[C@@H]2C[C@@H](O)CN2C(=O)[C@@H](NC(=O)CCCCCCNC(=O)CO[C@H]2C[C@@H](C(=O)N3CCC[C@H](c4ccccc4)C3)N(C(=O)[C@@H](NC(=O)c3cc4cc(C(F)(F)P(=O)(O)O)ccc4s3)C(C)(C)C)C2)C(C)(C)C)cc1 [Compound 439, (difluoro(2-(((S)-1-((2S,4S)-4-(2-((7-(((S)-1-((2S,4R)-4-hydroxy-2-(((S)-1-(4-(4-methylthiazol-5-yl)phenyl)ethyl)carbamoyl)pyrrolidin-1-yl)-3,3-dimethyl-1-oxobutan-2-yl)amino)-7-oxoheptyl)amino)-2-oxoethoxy)-2-((R)-3-phenylpiperidine-1-carbonyl)pyrrolidin-1-yl)-3,3-dimethyl-1-oxobutan-2-yl)carbamoyl)benzo[b]thiophen-5-yl)methyl)phosphonic acid]	> 10	DC50 (STAT6; L1236 cells, read-out: DC50 S6 L1236): > 10 µM
Cc1cc([C@H](C(=O)N2C[C@H](O)C[C@H]2C(=O)N[C@@H](CC(=O)NCCCCCCCCNC(=O)CO[C@@H]2C[C@@H](C(=O)N(C)c3ccc(Br)cc3)N(C(=O)[C@@H](NC(=O)c3cc4cc(C(F)(F)P(=O)(O)O)ccc4s3)C(C)(C)C)C2)c2ccc(-c3scnc3C)cc2)C(C)C)on1 [Compound 423, ((2-(((S)-1-((2S,4R)-2-((4-bromophenyl)(methyl)carbamoyl)-4-(2-((8-((S)-3-((2S,4R)-4-hydroxy-1-((R)-3-methyl-2-(3-methylisoxazol-5-yl)butanoyl)pyrrolidine-2-carboxamido)-3-(4-(4-methylthiazol-5-yl)phenyl)propanamido)octyl)amino)-2-oxoethoxy)pyrrolidin-1-yl)-3,3-dimethyl-1-oxobutan-2-yl)carbamoyl)benzo[b]thiophen-5-yl)difluoromethyl)phosphonic acid]	> 10	–
CC(C)(C)[C@H](NC(=O)c1cc2cc(C(F)(F)P(=O)(O)O)ccc2s1)C(=O)N1CCN(C(=O)CC(=O)NCCCCCCCCC#Cc2cccc3c2C(=O)N(C2CCC(=O)NC2=O)C3=O)C[C@H]1C(=O)N1CCO[C@H](c2ccccc2)C1 (stereo partly drawn) [Compound 517, ((2-(((2S)-1-((2S)-4-(3-((10-(2-(2,6-dioxopiperidin-3-yl)-1,3-dioxoisoindolin-4-yl)dec-9-yn-1-yl)amino)-3-oxopropanoyl)-2-((R)-2-phenylmorpholine-4-carbonyl)piperazin-1-yl)-3,3-dimethyl-1-oxobutan-2-yl)carbamoyl)benzo[b]thiophen-5-yl)difluoromethyl)phosphonic acid]	> 10	–
CC(C)(C)[C@H](NC(=O)c1cc2cc(C(F)(F)P(=O)(O)O)ccc2s1)C(=O)N1C[C@@H](OCC(=O)NCCCC#Cc2cccc3c2C(=O)N(C2CCC(=O)NC2=O)C3=O)C[C@H]1C(=O)N1CCC[C@H](c2ccccc2)C1 (stereo partly drawn) [Compound 497, ((2-(((2S)-1-((2S,4S)-4-(2-((5-(2-(2,6-dioxopiperidin-3-yl)-1,3-dioxoisoindolin-4-yl)pent-4-yn-1-yl)amino)-2-oxoethoxy)-2-((R)-3-phenylpiperidine-1-carbonyl)pyrrolidin-1-yl)-3,3-dimethyl-1-oxobutan-2-yl)carbamoyl)benzo[b]thiophen-5-yl)difluoromethyl)phosphonic acid]	> 10	–
Cc1ncsc1-c1ccc(CNC(=O)[C@@H]2C[C@@H](O)CN2C(=O)[C@@H](NC(=O)CCCCCCCCCNC(=O)CCN(C(=O)[C@@H]2CCCN2C(=O)[C@@H](NC(=O)c2cc3cc(C(F)(F)P(=O)(O)O)ccc3s2)C(C)(C)C)c2ccc(Br)cc2)C(C)(C)C)cc1 [Compound 396] ({Benzothienyl2CO(5-CF2PO3H2)}-[Tle]P[βAla(N-(4-Br-phenyl))][NH(CH2)9CO][Tle][Hyp]-{NHBn(4-(4-Me-thiazol-5-yl))})	–	DC50 (STAT6; read-out: DC50 S6 MB231, MB231 cells): > 10 µM
Cc1ncsc1-c1ccc([C@H](C)NC(=O)[C@@H]2C[C@@H](O)CN2C(=O)[C@@H](NC(=O)CCCCCCCNC(=O)COc2ccc3c(c2)CN(C(=O)[C@@H](NC(=O)c2cc4cc(C(F)(F)P(=O)(O)O)ccc4s2)C(C)(C)C)[C@H](C(=O)N2CCC[C@H](c4ccccc4)C2)C3)C(C)(C)C)cc1 [Compound 476, (difluoro(2-(((S)-1-((S)-7-(2-((8-(((S)-1-((2S,4R)-4-hydroxy-2-(((S)-1-(4-(4-methylthiazol-5-yl)phenyl)ethyl)carbamoyl)pyrrolidin-1-yl)-3,3-dimethyl-1-oxobutan-2-yl)amino)-8-oxooctyl)amino)-2-oxoethoxy)-3-((R)-3-phenylpiperidine-1-carbonyl)-3,4-dihydroisoquinolin-2(1H)-yl)-3,3-dimethyl-1-oxobutan-2-yl)carbamoyl)benzo[b]thiophen-5-yl)methyl)phosphonic acid]	> 10	–
